Measurements published in US11773113B2, “Crystal forms of crisaborole in free form and preparation method and use thereof” (Anacor Pharmaceuticals, Inc., priority 2016, dated 2023).
Values after ≈ are worked out from the molar mass of the structure shown.

Columns and labels:
Type in all cases: physicochemical
[1] = Study of moisture absorption, dynamic vapor sorption (DVS) test; settings: for Moisture absorption characteristic according to Chinese Pharmacopoeia (2015): 25° C.±1° C.; for Moisture absorption characteristic according to Chinese Pharmacopoeia (2015) / Weight increase of 80% relative humidity: 80% relative humidity; for Weight increase of 80% relative humidity / Weight increase of 95% relative humidity: DVS, 25° C.
Description: The dynamic vapor sorption (DVS) pattern as described in the invention was collected on an intrinsic dynamic vapor sorption meter as produced by Surface Measurement Systems Ltd. The dynamic vapor sorption method has the following parameters: Temperature: 25° C., Loading gas, flowing speed: N2, 200 ml/min, Variation in mass per time: 0.002%/minute, Relative humidity range: 0% RH-95% RH. […] The obtained results were shown in Table 13: With regard to the descriptions for the moisture absorption characteristic and the definition for the increased weight of moisture absorption (Guidelines for the Moisture Absorption Tests of Drugs in the Appendix of Chinese Pharmacopoeia (2015), Experimental conditions: 25° C.±1° C., 80% relative humidity): […]

[2] = Study of mechanical stability (ground by hand for 5 minutes, XRPD); settings: ground for 5 minutes by hand in a mortar
[3] = Study of dynamic solubility (saturated solution, HPLC); settings: for Solubility assessment: FaSSIF, FeSSIF, SGF and water; for solubility at 1 h / solubility at 24 h / solubility at 4 h: thermodynamic from solid
From the text: The high performance liquid chromatography (HPLC) data were collected in an Agilent 1260, and the used detector was a diode array detector (DAD). The HPLC method as described in the invention has the following parameters: […]

[4] = Study of particle size distribution (PSD, laser particle size analytic meter); settings: for Particle size distribution (PSD pattern): from PSD patterns FIG. 26-28; for D10 / D50 (median size) / D90: volume distribution; for D10 / D50 (median size) / D90 / MV (average particle size as calculated in terms of the volume): dispersion medium Isopar G; for MV (average particle size as calculated in terms of the volume): wet process
Description: The particle size distribution (PSD) results as described in the invention were collected on a S3500-type laser particle size analytic meter as produced by Microtrac Company. The Microtrac S3500 is equipped with a SDC (Sample Delivery Controller) feeding system. The test was conducted via a wet process, and the dispersion medium as used in the test was Isopar G. The laser particle size analytic meter has the following parameters: [table]

[5] = Polarizing microscope (PLM) patterns; settings: from PLM patterns FIG. 29-31
[6] = Study of long-term and acceleration stabilities (XRPD); settings: both 25° C./60% RH and 40° C./75% RH, 3 months

Row | Weight increase of 80% relative humidity [1] [%] | Weight increase of 95% relative humidity [1] [%] | Solubility ([3]; FaSSIF (pH = 6.5), 1 h) [µg/mL] | Solubility ([3]; FaSSIF (pH = 6.5), 4 h) [µg/mL] | Solubility ([3]; FaSSIF (pH = 6.5), 24 h) [µg/mL] | Solubility assessment [3] | Solubility ([3]; FeSSIF (pH = 5.0), 1 h) [µg/mL] | Solubility ([3]; FeSSIF (pH = 5.0), 4 h) [µg/mL] | Solubility ([3]; FeSSIF (pH = 5.0), 24 h) [µg/mL] | Solubility ([3]; H2O, 4 h) [µg/mL] | Solubility ([3]; H2O, 24 h) [µg/mL] | Solubility ([3]; SGF (pH = 1.8), 1 h) [µg/mL] | Solubility ([3]; SGF (pH = 1.8), 4 h) [µg/mL] | Solubility ([3]; SGF (pH = 1.8), 24 h) [µg/mL] | Particle size distribution (PSD pattern) [4] | D10 [4] [μm] | D50 (median size) [4] [μm] | D90 [4] [μm] | MV (average particle size as calculated in terms of the volume) [4] [μm] | Particle sizes of the particles (PLM pattern) [5] | Structure (SMILES) | further results
1 | 1.53 | 4.90 | 9 (≈ 35.8 µM) | 17 (≈ 67.7 µM) | 13 (≈ 51.8 µM) | in line with medicinal requirements | 62 (≈ 247 µM) | 61 (≈ 243 µM) | 56 (≈ 223 µM) | 6 (≈ 23.9 µM) | 4 (≈ 15.9 µM) | 31 (≈ 123 µM) | 27 (≈ 108 µM) | 26 (≈ 104 µM) | homogeneous | 13.43 | 33.68 | 99.36 | 52.95 | homogeneous | N#Cc1ccc(Oc2ccc3c(c2)COB3O)cc1 [Crystal form IV, 4-[(1,3-dihydro-1-hydroxyl-2,1-benzoxaborolane-5-yl)oxy]benzonitrile] | Moisture absorption characteristic according to Chinese Pharmacopoeia (2015) ([1]; listed as crystal IV): slight moisture absorption; Final crystal form [2]: Crystal form IV; Final crystal form ([2]; listed as crystal form IV): not changed
2 | 0.13 | 0.32 | 11 (≈ 43.8 µM) | 5 (≈ 19.9 µM) | 8 (≈ 31.9 µM) | in line with medicinal requirements | 18 (≈ 71.7 µM) | 49 (≈ 195 µM) | 55 (≈ 219 µM) | 1 (≈ 3.98 µM) | 6 (≈ 23.9 µM) | 10 (≈ 39.8 µM) | 26 (≈ 104 µM) | 15 (≈ 59.7 µM) | homogeneous | 8.24 | 20.46 | 40.42 | 23.13 | homogeneous | N#Cc1ccc(Oc2ccc3c(c2)COB3O)cc1 [Crystal form II, 4-[(1,3-dihydro-1-hydroxyl-2,1-benzoxaborolane-5-yl)oxy]benzonitrile] | Moisture absorption characteristic according to Chinese Pharmacopoeia (2015) [1]: almost have no moisture absorption; Solubility ([3]; H2O, 1 h): 3 µg/mL (≈ 11.9 µM); Stability of the crystal form on storage [6]: maintain their stability
3 | 0.14 | 0.32 |  | 7 (≈ 27.9 µM) |  | in line with medicinal requirements | 44 (≈ 175 µM) |  |  | 5 (≈ 19.9 µM) |  | 11 (≈ 43.8 µM) |  | 38 (≈ 151 µM) | homogeneous | 1.69 | 5.52 | 20.35 | 9.62 | homogeneous | N#Cc1ccc(Oc2ccc3c(c2)COB3O)cc1 [Crystal form I, 4-[(1,3-dihydro-1-hydroxyl-2,1-benzoxaborolane-5-yl)oxy]benzonitrile] | Moisture absorption characteristic according to Chinese Pharmacopoeia (2015) [1]: almost have no moisture absorption; Final crystal form [2]: Crystal form I; Final crystal form ([2]; listed as crystal form I): not changed; solubility at 1 h ([3]; fasted state simulated intestinal fluid (FaSSIF), pH 6.5, fassif, FaSSIF (pH = 6.5), 1 h): 6 µg/mL (≈ 23.9 µM); solubility at 24 h ([3]; fasted state simulated intestinal fluid (FaSSIF), pH 6.5, fassif, FaSSIF (pH = 6.5), 24 h): 12 µg/mL (≈ 47.8 µM); solubility at 4 h ([3]; fed state simulated intestinal fluid (FeSSIF), pH 5, fessif, FeSSIF (pH = 5.0), 4 h): 59 µg/mL (≈ 235 µM); solubility at 24 h ([3]; fed state simulated intestinal fluid (FeSSIF), pH 5, fessif, FeSSIF (pH = 5.0), 24 h): 59 µg/mL (≈ 235 µM); solubility at 4 h ([3]; simulated gastric fluid (SGF), pH 1.8, simulated gastric fluid, SGF (pH = 1.8), 4 h): 37 µg/mL (≈ 147 µM); solubility at 1 h ([3]; water, H2O, 1 h): 4 µg/mL (≈ 15.9 µM); solubility at 24 h ([3]; water, H2O, 24 h): 6 µg/mL (≈ 23.9 µM); Stability of the crystal form on storage [6]: maintain their stability
4 | 0.09 | 0.15 | 8 (≈ 31.9 µM) | 10 (≈ 39.8 µM) | 12 (≈ 47.8 µM) | in line with medicinal requirements | 25 (≈ 99.6 µM) | 67 (≈ 267 µM) | 74 (≈ 295 µM) | 4 (≈ 15.9 µM) | 6 (≈ 23.9 µM) | 33 (≈ 131 µM) | 34 (≈ 135 µM) | 40 (≈ 159 µM) |  | 21.68 | 163.0 | 903.1 | 289.0 |  | N#Cc1ccc(Oc2ccc3c(c2)COB3O)cc1 [Crystal form III, 4-[(1,3-dihydro-1-hydroxyl-2,1-benzoxaborolane-5-yl)oxy]benzonitrile] | Moisture absorption characteristic according to Chinese Pharmacopoeia (2015) [1]: almost have no moisture absorption; Solubility ([3]; H2O, 1 h): 5 µg/mL (≈ 19.9 µM); Stability of the crystal form on storage [6]: maintain their stability
